Values quoted from earlier work in paper PMC2700308 (Biochemistry, 2009).

Tested on: a protein
Settings: calorimetric; ref [33]

ΔH of binding of sulfate to a protein: 4.3 kcal/mol
Compound: O=S(=O)(O)O [sulfate]
